Reference: patent US11825838B2, “Tricyclic carboxamides for controlling arthropods” (Bayer CropScience Aktiengesellschaft, priority 2017, dated 2023)

What was measured:
Assay type in all cases: in vivo
[1] = system: Phaedon cochleariae; test: Phaedon cochleariae spray test (PHAECO); conditions: application rate 100 g/ha, spray, after 7 days; for pest or weed control at 100 g/ha: Phaedon cochleariae, 168 h, read-out: efficacy
Procedure: Phaedon cochleariae—Spray Test
(§1) To produce a suitable active ingredient formulation, 1 part by weight of active ingredient is dissolved with the specified parts by weight of solvent and made up to the desired concentration with water containing an emulsifier concentration of 1000 ppm. To produce further test concentrations, the formulation is diluted with emulsifier-containing water.
After 7 days, the efficacy in % is determined. 100% means that all the beetle larvae have been killed; 0% means that no beetle larvae have been killed.
Phaedon cochleariae—Spray Test (PHAECO)
as §1, with “compound” for “ingredient”
Discs of Chinese cabbage leaves (Brassica pekinensis) are sprayed with an active compound formulation of the desired concentration and, after drying, populated with larvae of the mustard beetle (Phaedon cochleariae).
After the desired time, the efficacy in % is determined. 100% means that all the beetle larvae have been killed; 0% means that no beetle larvae have been killed.

[2] = system: Spodoptera frugiperda; test: Spodoptera frugiperda spray test (SPODFR); conditions: application rate 100 g/ha, spray, after 7 days; for pest or weed control at 100 g/ha: Spodoptera frugiperda, 168 h, read-out: efficacy
Procedure: Spodoptera frugiperda—Spray Test
as §1
Leaf discs of maize (Zea mays) are sprayed with an active ingredient formulation of the desired concentration and, after drying, populated with caterpillars of the armyworm (Spodoptera frugiperda).
After 7 days, the efficacy in % is determined. 100% means that all the caterpillars have been killed; 0% means that no caterpillar has been killed.
Spodoptera frugiperda—Spray Test (SPODFR)
as §1, with “compound” for “ingredient”
Leaf discs of maize (Zea mays) are sprayed with an active compound formulation of the desired concentration and, after drying, populated with caterpillars of the armyworm (Spodoptera frugiperda).
After the desired time, the efficacy in % is determined. 100% means that all the caterpillars have been killed; 0% means that no caterpillar has been killed.

[3] = system: Anopheles gambiae strain RSPH (homozygot kdr); test: Anopheles test (ANPHGB surface treatment); conditions: application rate 100 mg/m^2, glazed tile, exposure 30 minutes, 24 hours after contact, read-out: efficacy (mortality)
Procedure: Anopheles Test (ANPHGB Surface Treatment)
(§2) Solvent: acetone+2000 ppm rapeseed oil methyl ester (RME)
(§3) To produce a suitable active compound formulation, the active compound is dissolved in the solvent (2 mg/ml). The active compound formulation is pipetted onto a glazed tile and, after it has dried off, adult mosquitoes of the species Anopheles gambiae strain RSPH (homozygot kdr) are placed onto the treated tile. The exposure time is 30 minutes.
(§4) 24 hours after contact with the treated surface, mortality in % is determined. 100% means that all mosquitoes have been killed; 0% means that none of the mosquitoes have been killed.

[4] = system: Rhipicephalus sanguineus; test: Rhipicephalus sanguineus in vitro contact test with adult brown dog ticks; conditions: application rate 5 μg/cm^2 (=500 g/ha), after 48 h, adult dog ticks dead or moribund
Procedure: Rhipicephalus sanguineus—In Vitro Contact Tests with Adult Brown Dog Ticks
(§5) For the coating of the test tubes, 9 mg of active ingredient are first dissolved in 1 ml of acetone p.a. and then diluted to the desired concentration with acetone p.a. 250 μl of the solution are distributed homogeneously on the inner walls and the base of a 25 ml glass tube by turning and rocking on an orbital shaker (rocking rotation at 30 rpm for 2 h). With 900 ppm of active ingredient solution and internal surface area 44.7 cm^2, given homogeneous distribution, an area-based dose of 5 μg/cm^2 is achieved.
After the solvent has evaporated off, the tubes are populated with 5-10 adult dog ticks (Rhipicephalus sanguineus), sealed with a perforated plastic lid and incubated in a horizontal position in the dark at room temperature and ambient humidity. After 48 h, efficacy is determined. To this end, the ticks are knocked to the base of the tube and incubated on a hotplate at 45-50° C. for not more than 5 min. Ticks which remain motionless on the base or move in such an uncoordinated manner that they are unable to deliberately avoid the heat by climbing upwards are considered to be dead or moribund.
An efficacy of 100% means that all the ticks were dead or moribund. 0% efficacy means that none of the ticks were harmed.

[5] = system: Boophilus microplus; test: Boophilus microplus injection test; conditions: application rate 20 μg/animal, assessed after 7 days by laying of fertile eggs
Procedure: Boophilus microplus—Injection Test
(§6) Solvent: dimethyl sulfoxide
To produce a suitable active compound preparation, 10 mg of active compound are mixed with 0.5 ml of solvent and the concentrate is diluted to the desired concentration with solvent.
1 μl of the active ingredient solution is injected into the abdomen of 5 engorged adult female cattle ticks (Boophilus microplus). The animals are transferred into dishes and kept in a climate-controlled room.
Efficacy is assessed after 7 days by laying of fertile eggs. Eggs which are not visibly fertile are stored in a climate-controlled cabinet until the larvae hatch after about 42 days. An efficacy of 100% means that none of the ticks has laid any fertile eggs; 0% means that all the eggs are fertile.

[6] = system: Lucilia cuprina; test: Lucilia cuprina test; conditions: application rate 100 ppm, L1 larvae, after 2 days
Procedure: as §6
(§7) To produce a suitable active ingredient formulation, 10 mg of active ingredient are mixed with 0.5 ml of dimethyl sulfoxide, and the concentrate is diluted with water to the desired concentration.
About 20 L1 larvae of the Australian sheep blowfly (Lucilia cuprina) are transferred into a test vessel containing minced horsemeat and the active compound preparation of the desired concentration.
After 2 days, the rate of extermination in % is determined. 100% means that all the larvae have been killed; 0% means that no larvae have been killed.

[7] = system: Ctenocephalides felis; test: Ctenocephalides felis oral test; conditions: application rate 100 ppm in citrated cattle blood, after 2 days
Procedure: Ctenocephalides felis—Oral Test
as §6
To produce a suitable active ingredient formulation, 10 mg of active ingredient are mixed with 0.5 ml of dimethyl sulfoxide. Dilution with citrated cattle blood gives the desired concentration.
About 20 unfed adult cat fleas (Ctenocephalides felis) are placed into a chamber which is closed at the top and bottom with gauze. A metal cylinder whose bottom end is closed with parafilm is placed onto the chamber. The cylinder contains the blood/active ingredient formulation, which can be imbibed by the fleas through the parafilm membrane.
After 2 days, the rate of extermination in % is determined. 100% means that all of the fleas have been killed; 0% means that none of the fleas have been killed.

[8] = system: Anopheles funestus strain FUMOZ-R; test: Anopheles test (ANPHFU surface treatment); conditions: application rate 100 mg/m^2, glazed tile, exposure 30 minutes, 24 hours after contact, read-out: efficacy (mortality)
Procedure: Anopheles Test (ANPHFU Surface Treatment)
as §2
as §3, with “funestus” for “gambiae”, “FUMOZ-R (Hunt et al., Med Vet Entomol. 2005 September; 19(3):271-5)” for “RSPH (homozygot kdr)”
as §4

[9] = system: Aedes aegypti strain MONHEIM; test: Aedes test (AEDSAE surface treatment); conditions: application rate 100 mg/m^2, glazed tile, exposure 30 minutes, 24 hours after contact, read-out: efficacy (mortality)
Procedure: Aedes Test (AEDSAE Surface Treatment)
as §2
as §3, with “Aedes aegypti” for “Anopheles gambiae”, “MONHEIM” for “RSPH (homozygot kdr)”
as §4

[10] = system: Myzus persicae; test: Myzus persicae oral test; conditions: application rate 4 ppm, after 5 days
Procedure: To produce a suitable active compound preparation, 1 part by weight of active compound is dissolved with the specified amounts by weight of solvent and made up to the desired concentration with water.
50 ul of the active compound preparation are transferred to microtiter plates and made up to a final volume of 200 μl with 150 μl of IPL41 insect medium (33%+15% sugar). Then the plates are sealed with parafilm through which a mixed population of the green peach aphid (Myzus persicae), which is located in a second microtiter plate, can pierce and absorb the solution.
(§8) After 5 days, the efficacy in % is determined. 100% means that all the aphids have been killed; 0% means that no aphids have been killed.

[11] = system: Musca domestica; test: Musca domestica test; conditions: application rate 100 ppm, adult houseflies, after 2 days
Procedure: as §6, §7
Vessels containing a sponge treated with sugar solution and the active ingredient formulation of the desired concentration are populated with 10 adult houseflies (Musca domestica).
After 2 days, the rate of extermination in % is determined. 100% means that all of the flies have been killed; 0% means that none of the flies have been killed.

[12] = system: Tetranychus urticae; test: Tetranychus urticae spray test, OP-resistant (TETRUR); conditions: spray, after 6 days
Procedure: Tetranychus urticae—Spray Test, OP-Resistant
as §1
Discs of bean leaves (Phaseolus vulgaris) infested with all stages of the greenhouse red spider mite (Tetranychus urticae) are sprayed with an active compound preparation of the desired concentration.
After 6 days, the efficacy in % is determined. 100% means that all the spider mites have been killed; 0% means that no spider mites have been killed.
Tetranychus urticae—Spray Test; OP-Resistant (TETRUR)
as §1, with “compound” for “ingredient”
Discs of bean leaves (Phaseolus vulgaris) infested with all stages of the greenhouse red spider mite (Tetranychus urticae) are sprayed with an active compound formulation of the desired concentration.
After the desired time, the efficacy in % is determined. 100% means that all the spider mites have been killed; 0% means that no spider mites have been killed.

[13] = system: Ctenocephalides felis; test: Ctenocephalides felis in vitro contact test with adult cat fleas; conditions: application rate 5 μg/cm^2 (=500 g/ha), after 48 h, adult cat fleas dead or moribund
Procedure: Ctenocephalides felis—In Vitro Contact Tests with Adult Cat Fleas
as §5
After the solvent has evaporated off, the tubes are populated with 5-10 adult cat fleas (Ctenocephalides felis), sealed with a perforated plastic lid and incubated in a horizontal position at room temperature and ambient humidity. After 48 h, efficacy is determined. To this end, the tubes are stood upright and the fleas are knocked to the base of the tube. Fleas which remain motionless at the base or move in an uncoordinated manner are considered to be dead or moribund.
100% efficacy means that all the fleas were dead or moribund. 0% efficacy means that no fleas were harmed.

[14] = system: Myzus persicae; test: Myzus persicae spray test (MYZUPE); conditions: application rate 100 g/ha, spray, after 5 days
Procedure: Myzus persicae—Spray Test
as §1
Discs of Chinese cabbage leaves (Brassica pekinensis) infested by all stages of the green peach aphid (Myzus persicae) are sprayed with an active compound preparation of the desired concentration.
as §8
Myzus Persicae—Spray Test (MYZUPE)
as §1, with “compound” for “ingredient”
Discs of Chinese cabbage leaves (Brassica pekinensis) infested with all stages of the green peach aphid (Myzus persicae) are sprayed with an active compound formulation of the desired concentration.
After the desired time, the efficacy in % is determined. 100% means that all the aphids have been killed; 0% means that no aphids have been killed.

Cn1cc(-c2cnn(-c3c(Cl)cc(C(F)(C(F)(F)F)C(F)(F)F)cc3Cl)c2)cc1C(=O)NC1CC1 [I-T1-3, N-cyclopropyl-4-{1-[2,6-dichloro-4-(1,1,1,2,3,3,3-heptafluoropropan-2-yl)phenyl]-1H-pyrazol-4-yl}-1-methyl-1H-pyrrole-2-carboxamide]
80 to 100%: mortality at 100 mg/m2 [3]
100%: pest or weed control at 100 g/ha [1] | pest or weed control at 100 g/ha [2] | efficacy [4] | efficacy [5] | efficacy (rate of extermination) [6] | efficacy (rate of extermination) [7]

Cn1c(C(=O)NC2CC2)cc(-c2cnn(-c3c(Cl)cc(C(F)(C(F)(F)F)C(F)(F)F)cc3Cl)c2)c1Cl [I-T1-9, 5-chloro-N-cyclopropyl-4-{1-[2,6-dichloro-4-(1,1,1,2,3,3,3-heptafluoropropan-2-yl)phenyl]-1H-pyrazol-4-yl}-1-methyl-1H-pyrrole-2-carboxamide]
100%: pest or weed control at 100 g/ha [1] | pest or weed control at 100 g/ha [2]
80 to 100%: mortality at 100 mg/m2 [8] | mortality at 100 mg/m2 [3] | mortality at 100 mg/m2 [9]

Cc1sc(-c2cnn(-c3c(Cl)cc(C(F)(C(F)(F)F)C(F)(F)F)cc3Cl)c2)cc1C(=O)NC1(C#N)CC1 [I-T1-10]
100%: efficacy [10] | efficacy [1] | efficacy [2] | efficacy (rate of extermination) [11] | efficacy [5] | efficacy (rate of extermination) [6] | efficacy (rate of extermination) [7] | efficacy ([12]; application rate 20 g/ha) | efficacy ([12]; application rate 100 g/ha)

O=C(NC1CC1)c1csc(-c2cnn(-c3c(Cl)cc(C(F)(C(F)(F)F)C(F)(F)F)cc3Cl)c2)c1 [I-T1-12, N-cyclopropyl-5-{1-[2,6-dichloro-4-(1,1,1,2,3,3,3-heptafluoropropan-2-yl)phenyl]-1H-pyrazol-4-yl}thiophene-3-carboxamide]
100%: efficacy [10] | pest or weed control at 100 g/ha [1] | pest or weed control at 100 g/ha [2] | efficacy [13] | efficacy [4] | efficacy (rate of extermination) [11] | efficacy (rate of extermination) [6] | efficacy (rate of extermination) [7]

N#CC1(NC(=O)c2csc(-c3cnn(-c4c(Cl)cc(C(F)(C(F)(F)F)C(F)(F)F)cc4Cl)c3)c2)CC1 [I-T1-13, N-(1-cyanocyclopropyl)-5-{1-[2,6-dichloro-4-(1,1,1,2,3,3,3-heptafluoropropan-2-yl)phenyl]-1H-pyrazol-4-yl}thiophene-3-carboxamide]
90%: efficacy ([12]; application rate 20 g/ha)
100%: pest or weed control at 100 g/ha [1] | pest or weed control at 100 g/ha [2] | efficacy (rate of extermination) [11] | efficacy [5] | efficacy (rate of extermination) [6] | efficacy (rate of extermination) [7] | efficacy ([12]; application rate 100 g/ha)
80 to 100%: mortality at 100 mg/m2 [9]

O=C(NC1CC1)c1cc(-c2cnn(-c3c(Cl)cc(C(F)(C(F)(F)F)C(F)(F)F)cc3Cl)c2)sc1Cl [I-T1-16, 2-chloro-N-cyclopropyl-5-{1-[2,6-dichloro-4-(1,1,1,2,3,3,3-heptafluoropropan-2-yl)phenyl]-1H-pyrazol-4-yl}thiophene-3-carboxamide]
90%: efficacy ([12]; application rate 20 g/ha)
100%: efficacy [10] | pest or weed control at 100 g/ha [1] | pest or weed control at 100 g/ha [2] | efficacy [14] | efficacy ([12]; application rate 100 g/ha)
